Experimental data taken from patent US10066159B2, “Composite nanoparticles including a phthalic acid derivative” (3M INNOVATIVE PROPERTIES COMPANY, priority 2013, dated 2018).

Test: Solubility in toluene
Assay type: physicochemical
Conditions: based on a total weight of the solution

| Compound | solubility in toluene |
| --- | --- |
| CCCCCCOc1ccc(C(=O)O)c(C(=O)O)c1 [Example 1, 4-hexyloxyphthalic Acid] | greater than 1 weight percent |
| CCCCCCCCOc1cc(C(=O)O)c(C(=O)O)cc1OCCCCCCCC [Example 2, 4,5-dioctyloxyphthalic Acid] | greater than 1 weight percent |
